This passage reports Activity results from ChEMBL document CHEMBL1149645, “Malondialdehyde scavenging and aldose-derived Schiff bases' transglycation properties of synthetic histidyl-hydrazide carnosine analogs” (Bioorg Med Chem, 2007).

Active and inactive are the calls of the source. The calls are words filed in the database; no cut-off is given here. Residues, ends and D or L forms follow the SMILES beside them. *: point of attachment. NHNH2 = NN*

This assay is described as follows: Malondialdehyde scavenging activity in iron/ascorbate-induced oxidation in PC liposomes at 10 mM by TBARS test. The assay is classed as functional.
Take `NCC(=O)NN`: the result was Active.

As for `NNC(=O)[C@@H](N)Cc1c[nH]cn1`, the result was Active.

With `NNC(=O)[C@H](Cc1c[nH]cn1)NC(=O)[C@@H](N)Cc1ccccc1` (H-Phe-His-NHNH2), the outcome was Active.

For the compound `NNC(=O)CNC(=O)OCc1ccccc1`, the outcome was Active.

Turning to `NNC(=O)[C@H](Cc1c[nH]cn1)NC(=O)OCc1ccccc1`, the result was Active.

Regarding `NCCC(=O)N[C@@H](Cc1c[nH]cn1)C(=O)O`, the result was Active.

For the compound `CC(C)CCCC(C)[C@H]1CCC2C3CC=C4C[C@@H](OC(=O)N[C@@H](Cc5c[nH]cn5)C(=O)NN)CC[C@]4(C)C3CC[C@@]21C` (some centres undefined), the result was Active.

Turning to `CC(C)C[C@H](N)C(=O)N[C@@H](Cc1c[nH]cn1)C(=O)NN` (H-Leu-His-NHNH2), the outcome was Active.

`Cc1c(C)c2c(c(C)c1OC(=O)CCC(=O)N[C@@H](Cc1c[nH]cn1)C(=O)NN)CCC(C)(CCCC(C)CCCC(C)CCCC(C)C)O2` (some centres undefined): the result was Active.
